According to patent publication US20250074910A1, “MENIN INHIBITOR AND USE THEREOF” (HITGEN INC., priority 2021, published 2025):

molecular target: Menin/MLL-4-43 peptide interaction (Homo sapiens (Human), UniProt O00255); test: Menin-MLL interaction inhibitory activity assay (fluorescence polarization competition); type: binding; conditions: FITC-MLL4-43-peptide, Menin recombinant protein
Experimental: Test Example 1: Menin-MLL Interaction Inhibitory Activity Assay
The inhibition of Menin/MLL-4-43 peptide interaction by small molecule inhibitors was quantitatively detected by fluorescence polarization competition assay. The experiment was performed in a 384-well plate (Corning, Cat #3575) using a reaction buffer consisting of 50 mM Tris, pH 7.5, 50 mM NaCl, and 1 mM DTT. A 40 μL reaction system included 10 μL of 8 nM Menin recombinant protein and 10 μL of the test compound at different concentrations. The compound was pre-incubated with Menin protein for 15 min, and then 20 μL of 10 nM FITC-MLL4-43-peptide was added. After incubation on a shaker at 25° C. for 60 min, the fluorescence polarization signal (FP 485 520 520) was read using BMG PHERAStar detection. The experimental data was analyzed and processed by GraphPad Prism 6 software to obtain the IC50 value. The control compound 1 was prepared by referring to the method of Example 64 in WO2017214367.

Menin/MLL-4-43 peptide interaction, sequence (O00255 whole entry, species assumed): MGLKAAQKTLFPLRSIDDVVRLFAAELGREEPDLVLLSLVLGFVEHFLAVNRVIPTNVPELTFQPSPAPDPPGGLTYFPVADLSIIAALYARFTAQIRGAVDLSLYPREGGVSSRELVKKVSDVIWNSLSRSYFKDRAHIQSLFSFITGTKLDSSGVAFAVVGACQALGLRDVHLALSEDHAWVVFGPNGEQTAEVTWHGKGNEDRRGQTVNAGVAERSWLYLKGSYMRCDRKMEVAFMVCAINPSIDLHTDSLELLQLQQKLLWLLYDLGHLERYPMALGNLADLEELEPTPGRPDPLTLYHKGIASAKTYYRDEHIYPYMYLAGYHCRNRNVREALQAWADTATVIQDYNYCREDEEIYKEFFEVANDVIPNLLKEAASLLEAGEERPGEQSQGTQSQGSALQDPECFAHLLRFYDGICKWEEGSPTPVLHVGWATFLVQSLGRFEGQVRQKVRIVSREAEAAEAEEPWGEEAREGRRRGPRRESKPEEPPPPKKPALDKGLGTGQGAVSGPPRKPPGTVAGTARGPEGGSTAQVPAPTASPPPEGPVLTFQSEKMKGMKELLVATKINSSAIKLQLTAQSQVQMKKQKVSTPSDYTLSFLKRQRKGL

SMILES	IC50
CCN(C(=O)c1cc(F)ccc1Oc1cncnc1N1CC2(CCN(CC3CC4CCC3CC43CCC(=O)N3)CC2)C1)C(C)C (single isomer, unassigned) [Example 3-1]	29 nM
CC(C)N(C(=O)c1cc(F)ccc1Oc1cncnc1N1CC2(CCN(CC3CC4CCC3CC43CCC(=O)N3)CC2)C1)C(C)C (single isomer, unassigned) [Example 13-1b]	33.4 nM
CCN(C(=O)c1cc(F)ccc1Oc1nncnc1N1CC2(CCN(C[C@H]3CC[C@]4(CC3)CC(C)C(=O)N4)CC2)C1)C(C)C (single isomer, unassigned) [Example 40-1]	14.8 nM
[2H]C([2H])([2H])C1C[C@]2(CC[C@@H](CN3CCC4(CC3)CN(c3ncnnc3Oc3ccc(F)cc3C(=O)N(C(C)C)C(C)C)C4)CC2)NC1=O (single isomer, unassigned) [Example 43-2]	48.7 nM
CC(C)N(C(=O)c1cc(F)ccc1Oc1nncnc1N1CC2(CCN(CC3CCC4(CC3)CC3(CC3)C(=O)N4)CC2)C1)C(C)C (single isomer, unassigned) [Example 44-1]	48.8 nM

test system: OCI-AML3; test: Cell proliferation inhibition (CellTiter-Glo), OCI-AML3 (NPM1 mutation); type: cell-based; conditions: Homo sapiens, OCI-AML-3, 168 h, OCI-AML3 cells
Experimental: (§1) Test Example 2: Test of the Inhibitory Ability of Menin-MLL Interaction Inhibitors on Cell Proliferation
(§2) The inhibitory ability of the compounds of the present disclosure on the proliferation of tumor cell lines (including cell lines containing MLL fusion protein such as MV4-11, MOLM-13, THP-1 and NOMO-1, control cell lines without MLL fusion protein such as HL-60, K562 and MOLM-16, and cell lines containing NPM1 mutation such as OCI-AML3) was evaluated by using the cell viability analysis method. The cells were plated in 96-well plates at a certain concentration (e.g., 5,000-20,000 cells/well), and then an equal volume of culture medium containing 2 times the final concentration of the test compound (the final concentration ranging 10 from 1 nM to 10 μM) was added. The plates were placed in an incubator and cultured at 37° C. and 5% CO2 for 72-168 h. Before the test, an equal volume of CellTiter-Glo® Luminescent reagent was added, and the plate was incubated at room temperature for 10 min before detection using an ELISA reader (BMG LABTECH). The data were analyzed using GraphPad Prism software to obtain the IC50 value and compound fitting curve. The control compound 1 was prepared by referring to the method of Example 64 in WO2017214367.

SMILES	GI50
CCN(C(=O)c1cc(F)ccc1Oc1cncnc1N1CC2(CCN(CC3CC4CCC3CC43CCC(=O)N3)CC2)C1)C(C)C (single isomer, unassigned) [Example 3-1]	66.5 nM
CC(C)N(C(=O)c1cc(F)ccc1Oc1cncnc1N1CC2(CCN(CC3CC4CCC3CC43CCC(=O)N3)CC2)C1)C(C)C (single isomer, unassigned) [Example 13-1b]	31.2 nM
CCN(C(=O)c1cc(F)ccc1Oc1nncnc1N1CC2(CCN(C[C@H]3CC[C@]4(CC3)CC(C)C(=O)N4)CC2)C1)C(C)C (single isomer, unassigned) [Example 40-1]	199 nM

same assay, conditions: OCI-AML3 cells, 168 h

SMILES	GI50
[2H]C([2H])([2H])C1C[C@]2(CC[C@@H](CN3CCC4(CC3)CN(c3ncnnc3Oc3ccc(F)cc3C(=O)N(C(C)C)C(C)C)C4)CC2)NC1=O (single isomer, unassigned) [Example 43-2]	80.6 nM
CC(C)N(C(=O)c1cc(F)ccc1Oc1nncnc1N1CC2(CCN(CC3CCC4(CC3)CC3(CC3)C(=O)N4)CC2)C1)C(C)C (single isomer, unassigned) [Example 44-1]	60.5 nM

test system: not listed separately; test: Pharmacokinetics test in mouse; type: in vivo, ICR mice; conditions: male, ICR, mouse, plasma, po, 10 mg/kg, mice, p.o. 10 mg/kg
Description: Test Example 4. In Vivo Pharmacokinetic Study
Test purpose: To determine the pharmacokinetic properties of some of the example compounds of the present disclosure in mice, rats and dogs after single intravenous injection (i.v.) and oral gavage (i.g.) administration by LC-MS/MS method.
Research methods: An appropriate amount of compound was weighed and prepared into a transparent clear solution of a certain concentration using 0.9% sodium chloride injection and 1.5 equivalents of 1M HCl aqueous solution based on the molar number of the compound. After SPF male ICR mice, SPF male SD rats, and male beagle dogs were fasted overnight, the test compound solution was given by intravenous injection and oral gavage at the corresponding dose. Anticoagulated whole blood of the test animals was collected at 5 min, 15 min, 30 min, 1 h, 2 h, 4 h, 8 h, and 24 h after administration, and plasma was separated. Plasma samples at each time point were detected by LC-MS/MS, and the plasma concentration of the compound was determined by the standard curve correction method. Phoenix WinNonlin 5.2 non-compartmental model was used to calculate the pharmacokinetic parameters of terminal elimination half-life (t½), blood peak concentration (Cmax), area under the concentration-time curve (AUC), clearance (CL), and bioavailability (F %), which was directly obtained from the serum concentration results. Blood drug concentration and pharmacokinetic parameters are expressed as mean±standard deviation (X±SD). The specific test protocols for each species are as follows.
Pharmacokinetics Test in Mouse
Test animals: SPF male ICR mice, weighing 25-30 g, 12 mice/compound, purchased from Chengdu Dossy Experimental Animal Co., Ltd.
Test design: On the day of the test, ICR mice were randomly divided into groups according to body weight, fasted but with free water for 12-14 h one day before administration, and fed 2 h after administration.
Preparation of test compound solution: The concentration of the test compound for oral gavage was 1 mg/mL. An appropriate amount of compound was weighed and prepared into a 1 mg/mL transparent clear solution using 0.9% sodium chloride injection and 1.5 equivalents of 1M HCl aqueous solution. The concentration of the test compound for intravenous injection was 0.2 mg/mL. The 1 mg/mL transparent clear solution was diluted to a concentration of 0.2 mg/mL using 0.9% sodium chloride injection. The volume of 1 M HCl solution added was calculated as: volume of 1 M HCl solution added […]=weighed amount of compound (mg)/molecular weight×1.5×1000. The amount added during preparation must not exceed the calculated value.
The test substance was administered as follows: intravenous injection: 1 mg/kg of dose, 5 mL/kg of volume, 6 mice; oral gavage: 10 mg/kg of dose, 10 mL/kg of volume, 6 mice.
Sample collection: Blood (40-50 μl) was collected in anticoagulant tubes sprayed with EDTA-K2 through the orbital venous plexus at 5 min, 15 min, 30 min, 1 h, 2 h, 4 h, 8 h, and 24 h after administration, and centrifuged at 10,000 rpm for 20 min within 1 h (the blood was saved on wet ice before and after centrifugation). The supernatant, which was plasma, was collected and frozen in a refrigerator at −20° C. or below for LC-MS/MS analysis of Full PK of male ICR mice (2 mice per group, 4 blood collection time points per mouse, crossover).

SMILES	AUC(0-t)	half-life
CC(C)N(C(=O)c1cc(F)ccc1Oc1cncnc1N1CC2(CCN(CC3CC4CCC3CC43CCC(=O)N3)CC2)C1)C(C)C (single isomer, unassigned) [Example 13-1b]	7770 ng·h/mL	3.84 h

same assay, conditions: male, ICR, mouse, plasma, po, 10 mg/kg, mice, p.o. 10 mg/kg; read-out: Cmax

SMILES	Cmax
CC(C)N(C(=O)c1cc(F)ccc1Oc1cncnc1N1CC2(CCN(CC3CC4CCC3CC43CCC(=O)N3)CC2)C1)C(C)C (single isomer, unassigned) [Example 13-1b]	2010 ng/mL

same assay, conditions: mice, p.o. 10 mg/kg; 1 mg/kg for intravenous injection

SMILES	F, %
CC(C)N(C(=O)c1cc(F)ccc1Oc1cncnc1N1CC2(CCN(CC3CC4CCC3CC43CCC(=O)N3)CC2)C1)C(C)C (single isomer, unassigned) [Example 13-1b]	72%

test system: MV4-11; test: Cell proliferation inhibition (CellTiter-Glo), MV4-11; type: cell-based; conditions: Homo sapiens, MV4-11, 72 h, MV4-11 cells
Experimental: as §1, §2

SMILES	GI50
CC(C)N(C(=O)c1cc(F)ccc1Oc1nncnc1N1CC2(CCN(CC3CCC4(CC3)CC3(CC3)C(=O)N4)CC2)C1)C(C)C (single isomer, unassigned) [Example 44-1]	16.7 nM

same assay, conditions: MV4-11 cells, 72 h

SMILES	GI50
CCN(C(=O)c1cc(F)ccc1Oc1cncnc1N1CC2(CCN(CC3CC4CCC3CC43CCC(=O)N3)CC2)C1)C(C)C (single isomer, unassigned) [Example 3-1]	324 nM
CC(C)N(C(=O)c1cc(F)ccc1Oc1cncnc1N1CC2(CCN(CC3CC4CCC3CC43CCC(=O)N3)CC2)C1)C(C)C (single isomer, unassigned) [Example 13-1b]	55.2 nM
CCN(C(=O)c1cc(F)ccc1Oc1nncnc1N1CC2(CCN(C[C@H]3CC[C@]4(CC3)CC(C)C(=O)N4)CC2)C1)C(C)C (single isomer, unassigned) [Example 40-1]	41.2 nM
[2H]C([2H])([2H])C1C[C@]2(CC[C@@H](CN3CCC4(CC3)CN(c3ncnnc3Oc3ccc(F)cc3C(=O)N(C(C)C)C(C)C)C4)CC2)NC1=O (single isomer, unassigned) [Example 43-2]	90 nM

test system: MOLM-13; test: Cell proliferation inhibition (CellTiter-Glo), MOLM-13; type: cell-based; conditions: Homo sapiens, MOLM-13, 168 h, MOLM-13 cells
Experimental: as §1, §2

SMILES	GI50
CCN(C(=O)c1cc(F)ccc1Oc1cncnc1N1CC2(CCN(CC3CC4CCC3CC43CCC(=O)N3)CC2)C1)C(C)C (single isomer, unassigned) [Example 3-1]	47.4 nM
CC(C)N(C(=O)c1cc(F)ccc1Oc1cncnc1N1CC2(CCN(CC3CC4CCC3CC43CCC(=O)N3)CC2)C1)C(C)C (single isomer, unassigned) [Example 13-1b]	63.3 nM
CCN(C(=O)c1cc(F)ccc1Oc1nncnc1N1CC2(CCN(C[C@H]3CC[C@]4(CC3)CC(C)C(=O)N4)CC2)C1)C(C)C (single isomer, unassigned) [Example 40-1]	122 nM

same assay, conditions: MOLM-13 cells, 168 h

SMILES	GI50
[2H]C([2H])([2H])C1C[C@]2(CC[C@@H](CN3CCC4(CC3)CN(c3ncnnc3Oc3ccc(F)cc3C(=O)N(C(C)C)C(C)C)C4)CC2)NC1=O (single isomer, unassigned) [Example 43-2]	137 nM
CC(C)N(C(=O)c1cc(F)ccc1Oc1nncnc1N1CC2(CCN(CC3CCC4(CC3)CC3(CC3)C(=O)N4)CC2)C1)C(C)C (single isomer, unassigned) [Example 44-1]	111 nM
